The results in this text go back to US20100076194A1, “SUBSTITUTED 3-AMINO-1-OXO OR THIOXO-1,2,5,6,7,8-HEXAHYDRO-2,7-NAPHTHYRIDINE-4-CARBONITRILES ARE SELECTIVE ALPHA 2B ANTAGONISTS” (ALLERGAN, INC., priority 2008, published 2010).

Test [1] addresses T1, mouse alpha2B receptor (Mus musculus, UniProt P30545).
T1 construct: expressed in transfected cells; host or cells: HEK 293
T1 sequence (P30545 1-453): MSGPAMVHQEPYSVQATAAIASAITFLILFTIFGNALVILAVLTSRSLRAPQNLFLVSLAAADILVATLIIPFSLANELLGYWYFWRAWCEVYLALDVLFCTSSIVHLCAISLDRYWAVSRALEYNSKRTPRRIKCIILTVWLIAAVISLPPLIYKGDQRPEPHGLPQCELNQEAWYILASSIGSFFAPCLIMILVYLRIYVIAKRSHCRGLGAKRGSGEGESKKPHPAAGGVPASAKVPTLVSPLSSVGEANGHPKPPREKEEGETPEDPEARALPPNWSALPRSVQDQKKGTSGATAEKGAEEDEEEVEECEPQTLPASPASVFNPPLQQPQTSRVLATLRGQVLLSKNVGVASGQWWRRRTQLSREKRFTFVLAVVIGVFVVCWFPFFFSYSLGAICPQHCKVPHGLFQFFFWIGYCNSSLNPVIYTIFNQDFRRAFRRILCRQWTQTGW
The test can be described thus: FLIPR Ca+2 influx antagonist assay, alpha 2B. In kind it is cell-based. The note with it: for % Antagonism Alpha 2B: value in parentheses. As to the method: (§1) HEK 293 cells stably expressing the human alpha 2A receptor and the chimeric G protein Gqi5, the mouse alpha2B receptor and the G protein G16, and the human alpha 2C receptor and the chimeric G protein Gqi5 are plated in poly-D-lysine coated 96-well plates at 50,000-75,000 cells per well and grown overnight in DMEM supplemented with 10% fetal bovine serum. For FLIPR (fluorometric image plate reader) evaluation, cells are washed twice with HBSS/HEPES Buffer (1× Hanks Buffered Salt Solution, 20 mM HEPES, pH 7.4) prior to the addition of Fluo-4-AM (4 uM Fluo-4-AM, 0.04% pluronic acid in HBSS/HEPES Buffer), a calcium-sensitive dye. Cells are loaded with dye for 60 minutes at 37° C., then washed 4 times with HBSS/HEPES Buffer. For both the agonist and antagonist assay, the test compounds are tested between 0.64 nM-10,000 nM.
(§2) However, the antagonist blocks the transient calcium signal of the standard agonist norepinephrine in a dose-dependent manner. The residual norepinephrine peak height is compared to the non-antagonized norepinephrine peak height for the determination of % antagonism.

Test [2] concerns the target T2, human alpha 2A receptor (Homo sapiens, UniProt P08913).
T2 construct: expressed in transfected cells; host or cells: HEK 293
T2 sequence (P08913 1-465): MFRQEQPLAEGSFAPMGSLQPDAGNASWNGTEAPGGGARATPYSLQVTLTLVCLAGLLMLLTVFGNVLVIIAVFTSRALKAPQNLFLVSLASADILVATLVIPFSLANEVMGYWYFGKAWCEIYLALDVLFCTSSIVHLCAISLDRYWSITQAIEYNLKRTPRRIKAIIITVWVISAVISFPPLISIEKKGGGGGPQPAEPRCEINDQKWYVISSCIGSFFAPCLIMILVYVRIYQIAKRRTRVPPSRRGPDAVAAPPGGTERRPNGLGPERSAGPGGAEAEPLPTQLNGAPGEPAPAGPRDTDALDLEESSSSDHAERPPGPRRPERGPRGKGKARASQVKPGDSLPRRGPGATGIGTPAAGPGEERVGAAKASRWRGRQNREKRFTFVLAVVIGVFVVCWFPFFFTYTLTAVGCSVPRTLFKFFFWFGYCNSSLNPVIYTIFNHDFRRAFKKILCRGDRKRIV
The test can be described thus: FLIPR Ca+2 influx antagonist assay, alpha 2A. In kind it is cell-based. The note with it: HEK 293 cells, Gqi5; for IC50: antagonism of norepinephrine calcium signal; for % Antagonism Alpha 2A: value in parentheses. As to the method: as §1, §2

The target in test [3] is T3, human alpha 2C receptor (Homo sapiens, UniProt P18825).
T3 construct: expressed in transfected cells; host or cells: HEK 293
T3 sequence (P18825 1-462): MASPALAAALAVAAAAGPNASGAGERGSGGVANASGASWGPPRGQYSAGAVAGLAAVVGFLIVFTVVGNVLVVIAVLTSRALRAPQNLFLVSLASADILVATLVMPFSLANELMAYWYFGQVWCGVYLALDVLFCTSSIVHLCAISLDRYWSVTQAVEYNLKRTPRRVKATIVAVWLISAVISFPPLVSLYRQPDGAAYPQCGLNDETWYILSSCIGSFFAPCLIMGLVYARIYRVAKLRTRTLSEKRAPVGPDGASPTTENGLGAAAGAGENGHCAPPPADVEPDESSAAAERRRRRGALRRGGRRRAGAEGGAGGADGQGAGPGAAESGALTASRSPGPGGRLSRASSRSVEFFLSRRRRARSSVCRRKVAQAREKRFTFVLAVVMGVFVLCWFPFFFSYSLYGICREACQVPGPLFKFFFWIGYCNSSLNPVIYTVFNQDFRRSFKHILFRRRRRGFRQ
Put plainly: FLIPR Ca+2 influx antagonist assay, alpha 2C. It counts as cell-based. The note with it: HEK 293 cells, Gqi5; for % Antagonism Alpha 2C: value in parentheses. Here is the method: as §1, §2

For test [4], the target named is T4, Alpha 1B adrenergic receptor (Homo sapiens, UniProt P35368).
T4 sequence (P35368 1-520): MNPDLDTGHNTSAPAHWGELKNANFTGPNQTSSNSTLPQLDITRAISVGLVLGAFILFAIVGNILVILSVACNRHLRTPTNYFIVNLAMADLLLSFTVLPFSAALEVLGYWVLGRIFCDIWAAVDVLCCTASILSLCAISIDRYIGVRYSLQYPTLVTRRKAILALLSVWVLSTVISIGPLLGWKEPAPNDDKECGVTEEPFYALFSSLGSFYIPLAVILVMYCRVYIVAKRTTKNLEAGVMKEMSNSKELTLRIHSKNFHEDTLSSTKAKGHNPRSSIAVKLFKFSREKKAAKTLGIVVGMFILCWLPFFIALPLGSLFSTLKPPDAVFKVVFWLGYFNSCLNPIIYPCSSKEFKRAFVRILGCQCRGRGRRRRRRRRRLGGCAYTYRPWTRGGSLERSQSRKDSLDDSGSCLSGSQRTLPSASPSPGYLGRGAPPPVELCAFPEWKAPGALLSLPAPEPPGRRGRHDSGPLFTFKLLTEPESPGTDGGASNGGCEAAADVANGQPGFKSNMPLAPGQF
Put plainly: FLIPR Ca+2 influx antagonist assay, alpha 1B. The note with it: for % Antagonism Alpha 1B: value in parentheses, vs norepinephrine peak height. It counts as cell-based.

Test [5] deals with mechanical allodynia. Put plainly: Chung rat nerve ligation model of neuropathic pain (mechanical allodynia). It counts as in vivo. As to conditions: co-administered IP at 100 ug/kg each, 30 minutes post drug, FIG. 1A. Here is the method:
The Chung model is a surgical model of neuropathic pain in rats. The pain state is generated by tight ligation of the L5 and L6 spinal nerves on one side of the rat. The surgical procedure results in a long-lasting mechanical allodynia in the affected foot. Mechanical allodynia is measured using von Frey filaments, where the investigator stimulates the plantar surface of the affected foot. Different sized filaments generate a different force. A painful response is signified by withdrawal of the paw.
Mechanical allodynia is measured at 30 minutes post drug and is reported as the percentage response to the baseline reading taken pre-drug administration.
The lack of allodynial reversal in these rats is also a measure of antagonist ability to block a response.

Test [6] deals with T5, Alpha 1A adrenergic receptor (Homo sapiens, UniProt P35348).
T5 sequence (P35348 1-466): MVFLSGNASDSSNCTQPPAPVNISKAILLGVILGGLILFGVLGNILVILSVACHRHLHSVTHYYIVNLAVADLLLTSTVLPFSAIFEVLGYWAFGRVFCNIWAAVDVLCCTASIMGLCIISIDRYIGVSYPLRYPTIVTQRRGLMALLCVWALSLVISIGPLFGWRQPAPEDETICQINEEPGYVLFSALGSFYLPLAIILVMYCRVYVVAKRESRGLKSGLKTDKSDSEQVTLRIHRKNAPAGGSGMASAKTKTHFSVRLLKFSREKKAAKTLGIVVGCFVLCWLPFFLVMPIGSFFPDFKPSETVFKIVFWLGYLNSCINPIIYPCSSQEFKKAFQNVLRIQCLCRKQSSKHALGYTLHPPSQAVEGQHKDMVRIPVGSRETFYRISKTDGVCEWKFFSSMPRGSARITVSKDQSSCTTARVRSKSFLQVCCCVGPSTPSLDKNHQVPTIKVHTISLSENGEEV
The test can be described thus: FLIPR Ca+2 influx antagonist assay, alpha 1A. In kind it is cell-based. The note with it: for % Antagonism Alpha 1A: value in parentheses, vs norepinephrine peak height.

[7] abbreviates: HEK 293 cells, G16, antagonism of norepinephrine calcium signal, read-out: IC50 Alpha 2B.

The structures appear in SMILES notation. Where two headings read alike, the source gives them in different places. Some results are limits rather than exact numbers.

By IC50 is commonly meant the concentration that gives 50% inhibition. Turning to `Cn1c(N)c(C#N)c2c(c1=S)CNCC2` [Example 4, 3-amino-2-methyl-1-thioxo-1,2,5,6,7,8-hexahydro-2,7-naphthyridine-4-carbonitrile], the IC50 in test [1] (setting [7]) came out at 342 nM. In addition, the “% Antagonism Alpha 2B” value in test [1] (HEK 293 cells, G16) came out at 93%.

`CN1CCc2c(C#N)c(N)n(C)c(=S)c2C1` [Example 5, 3-amino-2,7-dimethyl-1-thioxo-1,2,5,6,7,8-hexahydro-2,7-naphthyridine-4-carbonitrile]: the results for the 50% inhibitory concentration (IC50) in test [2], in test [4] and in test [1] were 1990 nM, more than 8300 nM and 10 nM, respectively. Besides, in test [2], the “% Antagonism Alpha 2A” value came to 69%. The “% Antagonism Alpha 2C” value in test [3] is “nd (25) %”. In addition, the “% Antagonism Alpha 1B” value in test [4] was 0%. Moreover, in test [5], the “block of allodynia reversal by 4-Cyclopent-3-enylmethyl-1,3-dihydro-imidazole-2-thione” value is on record as “completely blocks”. Also, the “% Antagonism Alpha 2B” value in test [1] (HEK 293 cells, G16) came out at 95%. For the same molecule, the “% Antagonism Alpha 1A” value in test [6] is “nd (64) %”.

Consider `CN1CCc2c(C#N)c(N)n(N)c(=S)c2C1` [Example 6, 2,3-diamino-4-cyano-7-methyl-(1,2,5,6,7,8-hexahydro-2,7-napthyridine-1-thione)], for which, in test [2], the “% Antagonism Alpha 2A” value is on record as “nd (36) %”. Also, the half-maximal inhibitory concentration (IC50) is 1410 nM in test [3] (antagonism of norepinephrine calcium signal); more than 7500 nM in test [4] (antagonism of norepinephrine calcium signal, read-out: IC50 Alpha 1B); 204 nM in test [1] (setting [7]); more than 7500 nM in test [6] (antagonism of norepinephrine calcium signal, read-out: IC50 Alpha 1A). The “% Antagonism Alpha 2C” value in test [3] was determined as 29%. Besides, the “% Antagonism Alpha 1B” value in test [4] is recorded as 19%. Besides, the “% Antagonism Alpha 2B” value in test [1] (HEK 293 cells, G16) is reported as 112%. The “% Antagonism Alpha 1A” value in test [6] turned out to be 19%.

As for `CN1Cc2c(c(C#N)c(N)n(N)c2=S)CC1(C)C` [Example 7, 2,3-diamino-4-cyano-6,6,7-trimethyl-(1,2,5,6,7,8-hexahydro-2,7-napthyridine-1-thione)], the half-inhibitory concentration (IC50) in test [2] was more than 7500 nM; in test [4] it was more than 7500 nM; in test [1] it was 29 nM; in test [6], 382 nM. In test [2], the “% Antagonism Alpha 2A” value is on record as 0%. The “% Antagonism Alpha 2C” value in test [3] was “nd (17) %”. Also, the “% Antagonism Alpha 1B” value in test [4] stood at 16%. The “% Antagonism Alpha 2B” value in test [1] (HEK 293 cells, G16) came to 97%. Further, the “% Antagonism Alpha 1A” value in test [6] is 98%.

Consider `CCn1c(N)c(C#N)c2c(c1=S)CN(C)CC2` [Example 8, 3-Amino-2-ethyl-4-cyano-7-methyl-(1,2,5,6,7,8-hexahydro-2,7-napthyridine-1-thione)], for which the IC50 in test [1] (setting [7]) is 473 nM. In test [1] (HEK 293 cells, G16), the “% Antagonism Alpha 2B” value is reported as 95%.

Take `CN1CCc2c(C#N)c(N)n(C)c(=O)c2C1` [Example 9, 3-Amino-2-methyl-4-cyano-7-methyl-(1,2,5,6,7,8-hexahydro-2,7-napthyridine-1-ketone)]: the half-maximal inhibitory concentration (IC50) in test [1] (setting [7]) is 1170 nM. The “% Antagonism Alpha 2B” value in test [1] (HEK 293 cells, G16) turned out to be 88%.
